The assay addresses human PDE1B enzyme (Homo sapiens (Human), UniProt Q01064). In words: IMAP TR-FRET PDE1B enzymatic assay. Particulars: negative log of half-maximal molar inhibitory concentration, 200 nM FAM-cAMP, values given as bins; for IC50: read-out: PDE1b (pIC50) (converted). The class given is biochemical. An outline of the steps:
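Full-length GST-tagged human PDE1B (250 pg/well) in IMAP BSA buffer with 10 U/ml calmodulin and 2.5 mM CaCl2; compound pre-incubated 5 min at room temperature, then 200 nM (final) FAM-cAMP for 30 min. IMAP binding reagent/Tb added, 1 h; TR-FRET 520/490 ratio read. IC50 from sigmoidal dose-response fit.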
On the technique in general: Time-resolved FRET reads energy transfer from a long-lived donor to a nearby acceptor.

The structures appear in SMILES notation.

For the compound `COc1nc(C2CC2)nc2c1CCN(C(=O)c1c(C)oc3ncnc(NC4(C)CC4)c13)C2` [Example 812, 5-{2-Cyclopropyl-4-methoxy-5H,6H,7H,8H-pyrido[3,4-d]pyrimidine-7-carbonyl}-6-methyl-N-(1-methylcyclopropyl)furo[2,3-d]pyrimidin-4-amine], the “PDE1b (pIC50)” value was greater than 8.

Turning to `CCN(Cc1cc(OC)ncn1)C(=O)c1c(C)oc2ncnc(NC3(C)CC3)c12` [Example 813, N-Ethyl-N-[(6-methoxypyrimidin-4-yl)methyl]-6-methyl-4-[(1-methylcyclopropyl)amino]furo[2,3-d]pyrimidine-5-carboxamide], the IC50 was 100 to 1000 nM.

For the compound `Cc1nc(C)n2c1CN(C(=O)c1c(C)oc3ncnc(NC4(C)CC4)c13)CC2` [Example 814, 5-{1,3-Dimethyl-5H,6H,7H,8H-imidazo[1,5-a]pyrazine-7-carbonyl}-6-methyl-N-(1-methylcyclopropyl)furo[2,3-d]pyrimidin-4-amine], the IC50 was 100 to 1000 nM.

These data come from patent publication US20250145633A1, “SUBSTITUTED FURANOPYRIMIDINE COMPOUNDS AS PDE1 INHIBITORS” (Dart NeuroScience, LLC, priority 2017, published 2025).
